Here are results for 15 compounds from patent US5516889A, “Synthetic thrombin receptor peptides” (University Technologies International, Inc., priority 1995, dated 1996).

Data set [1] deals with T1, thrombin receptor (guinea pig gastric longitudinal muscle strips) (Cavia porcellus, UniProt A0A286XH07).
T1 sequence (A0A286XH07 24-426): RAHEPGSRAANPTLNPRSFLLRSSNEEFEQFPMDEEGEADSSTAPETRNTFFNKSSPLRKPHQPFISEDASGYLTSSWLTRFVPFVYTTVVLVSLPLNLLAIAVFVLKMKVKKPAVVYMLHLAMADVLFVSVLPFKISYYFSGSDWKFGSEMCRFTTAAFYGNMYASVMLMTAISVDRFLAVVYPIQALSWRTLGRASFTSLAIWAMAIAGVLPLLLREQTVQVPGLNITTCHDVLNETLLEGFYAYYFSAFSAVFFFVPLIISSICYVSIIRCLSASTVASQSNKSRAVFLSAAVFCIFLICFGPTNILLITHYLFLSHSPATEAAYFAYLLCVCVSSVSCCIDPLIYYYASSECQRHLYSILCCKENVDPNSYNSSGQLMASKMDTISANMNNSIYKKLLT
The conditions noted are these: for Effect of inhibitor on contractile actions of P5--NH2 and Pr-P4: GLM. As for the experimental part: (§1) The guinea pig gastric longitudinal muscle (GLM) strips and the rat thoracic aorta (RA) ring preparations were isolated as previously described 14, 15. In brief, gastric LM strips (3×10 mm), obtained from male albino Hartley strain guinea pigs were equilibrated for about 1.5 h at 37° (in an aerated (95% O2 /5% CO2) Krebs-Henseleit buffer (3 mL) of the following composition (in mM): NaCl, 118; KCl, 4.7; CaCl2, 2.5; MgCl2, 1.2; NaHCO3, 25; KH2 PO4, 1.2; and glucose, 10. The pH was maintained at 7.4. Rat gastric LM strips (3×10 mm) were obtained, as for the GLM strips, from male albino Sprague Dawley animals (250-300 g). The stomach, opened along the greater curvature, was stripped free of all mucosal tissue under microscopic visualization and longitudinal tissue strips were cut exactly at right angles to the visible circular muscle bundles. Tissue strips were pre-equilibrated in the buffer described above. Each tissue was challenged twice each in succession at timed intervals with 50 nM carbachol (20 min intervals), 1 μM angiotensin-II (1 h intervals) and 95 μM (60 μg/mL) receptor pentapeptide (P5, SFLLR, SEQ ID NO: 2) (25 min intervals for GLM; 30-35 min for RLM); tissues were washed at 10 and 15 min after the additions of agonists. Contractions were monitored isometrically using Statham force-displacement transducers. Only tissues responding well to all three agonists were used further for the evaluation of the biological activities of P5 and other peptide agonists.

Data set [2] deals with thrombin receptor (rat thoracic aorta rings, intact endothelium). The settings on record: for Agonist (relaxation) activity: precontracted with 0.1 μM noradrenaline.
Description: Thoracic RA rings (2 mm×3 mm), obtained from male albino Sprague Dawley rats, were equilibrated (about 1 h, 37° ) in the same organ bath buffer as was used for the LM tissue, and tension (baseline 1.0 g) was monitored isometrically using either Statham or Grass force-displacement transducers. The presence of an intact endothelium was ascertained by monitoring a relaxation response to acetylcholine (ACh, 1 μM) in a preparation that was submaximally (EC75) contracted by 0.1 μM noradrenaline (NA) in the presence of 0.1 mM ascorbic acid (to preserve the catecholamine). Only tissues yielding a relaxation concentration-response curve between 0.01 and 10 μM acetylcholine (maximal relaxation of 70 to 90%, relative to the tension developed by 0.1 μM NA) were used for the further evaluation of the receptor-derived peptides. The assay of TRP responsiveness was done (e.g. see FIG. 1) on tissues that were precontacted with 0.1 μM NA at 30 min time intervals. Tissues were washed approx. 5 min after the application of TRPs. […] For purposes of comparison, the same stock solutions of an individual peptide were evaluated, relative to P5, in both the RA and LM bioassays. When possible, both assays were done simultaneously on the same day.
Weighed peptide samples were routinely dissolved in 50 mM phosphate buffer, pH 7.4, to yield stock solutions, from which volumes of up to 0.2 mL were added directly to the organ bath; the concentrations of all stock solutions used were verified by quantitative amino acid analysis of aliquots. Pr-P4 and Pr-P4--NH2 were dissolved in 40 mM phosphate buffer, pH 7.4, containing 20% v/v absolute ethanol (i.e. 8 Vol of the above 50 mM phosphate buffer +2 Vol. ethanol). […] Indomethacin was dissolved in ethanol, such that the final ethanol concentration in the organ bath was at or lower than 0.01% v/v; this concentration of ethanol alone had no effect on the bioassay systems.
For data set [3], the target named is T2, thrombin receptor (rat gastric longitudinal muscle strips) (Rattus norvegicus, UniProt P26824).
T2 construct: Rat gastric LM strips (3×10 mm) were obtained; from tissue; host or cells: rat (Sprague Dawley) gastric longitudinal muscle strips
T2 sequence (P26824 22-432): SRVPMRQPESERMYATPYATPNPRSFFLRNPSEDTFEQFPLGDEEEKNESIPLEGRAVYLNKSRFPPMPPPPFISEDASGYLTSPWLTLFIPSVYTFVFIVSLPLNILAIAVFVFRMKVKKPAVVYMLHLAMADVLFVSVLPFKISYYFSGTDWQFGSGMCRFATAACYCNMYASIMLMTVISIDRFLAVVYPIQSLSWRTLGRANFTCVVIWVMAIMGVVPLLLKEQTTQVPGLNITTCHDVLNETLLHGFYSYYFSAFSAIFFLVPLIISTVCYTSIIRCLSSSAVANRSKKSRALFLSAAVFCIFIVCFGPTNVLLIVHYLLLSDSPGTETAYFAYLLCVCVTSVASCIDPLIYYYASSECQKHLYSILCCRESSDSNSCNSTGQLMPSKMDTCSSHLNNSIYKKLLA
In words: Rat gastric longitudinal muscle (RLM) strip contractile assay. The class given is cell-based.
Description: We obtained an evaluation of the potencies of the various TRPs, relative to P5, by using the linear portions of the concentration-effect curves, so as to calculate for several response levels the average ratio of concentrations (REC) of an individual TRP, relative to concentration of P5 that caused the same contractile response (i.e. REC =ECTRP .div.ECPS). […] In the RA assay, a similar approach to the estimate of relative potencies (REC S) was used, even though all agonists, except for P5--OCH3, appeared to cause equivalent maximal relaxation (FIG. 2, lower).
as §1, with “peptide agonists. For the GLM and RLM assays, concentration-effect curves for all peptides were constructed by expressing the response of each agonist as a percentage (% P595) relative to the contraction caused by 95 μM (60 μg/mL) P5 (0.9±0.1 g tension: mean ±S.E.M. for n=12 in the GLM; 1.6±0.9 g tension: mean ±S.E.M. for n=36 in the RLM).” for “peptide agonists.”
Weighed peptide samples were routinely dissolved in 50 mM phosphate buffer, pH 7.4, to yield stock solutions, from which volumes of up to 0.2 mL were added directly to the organ bath; the concentrations of all stock solutions used were verified by quantitative amino acid analysis of aliquots. Pr-P4 and Pr-P4--NH2 were dissolved in 40 mM phosphate buffer, pH 7.4, containing 20% v/v absolute ethanol (i.e. 8 Vol of the above 50 mM phosphate buffer +2 Vol. ethanol). Control aliquots of the ethanol-containing phosphate buffer alone had no effect on either of the bioassay systems. Acetylcholine, carbachol, indomethacin, noradrenaline and angiotensin-II and thrombin (human, 3000 to 4000 U/mg; 1 U/mL.perspectiveto.10 nM) were from Sigma (St. Louis, Mo.); genistein (GS) was from ICN Biochemicals, Costa Mesa, Calif. Tyrphostin (TP) (RG 50864, also designated AG213) was obtained through the courtesy of Dr. R. R. Swillo, Rhone-Poulenc Rorer (Collegeville, Pa). […] Indomethacin was dissolved in ethanol, such that the final ethanol concentration in the organ bath was at or lower than 0.01% v/v; this concentration of ethanol alone had no effect on the bioassay systems.

The mark [4] stands for this setting: average concentration ratio relative to P5 causing equal relaxation response (REC = EC TRP ÷ EC P5).
Where [5] appears, read: average concentration ratio relative to P5 causing equal contractile response (REC = EC TRP ÷ EC P5).

Like-named read-outs stand apart in the source and are kept apart here. Residues, ends and D or L forms follow the SMILES beside them. *: point of attachment. Propionyl = CCC(=O)*

On to `CC(C)C[C@H](NC(=O)[C@H](CC(C)C)NC(=O)[C@H](Cc1ccccc1)NC(=O)[C@@H](N)CO)C(=O)N[C@@H](CCCCN)C(=O)O` [PK5, S42 FLLK46] (H-SFLLK-OH), for which the “Relative potency (REC) GLM” value in data set [1] was determined as 4.5. Further, in data set [2], the “Relative potency (REC) RA” value was determined as 1.3.

In the case of `COC(=O)[C@H](CCCNC(=N)N)NC(=O)[C@H](CC(C)C)NC(=O)[C@H](CC(C)C)NC(=O)[C@H](Cc1ccccc1)NC(=O)[C@@H](N)CO` [P5-OCH-3, S42 FLLR46 -O-Methyl], the “Relative potency (REC) GLM” value in data set [1] was 0.1. Moreover, the “Relative potency (REC) RA” value in data set [2] amounted to 0.1. Also, the “Agonist (relaxation) activity” value in data set [2] (RA) is listed as “partial agonist”.

As to `CC(C)C[C@H](NC(=O)[C@H](Cc1ccccc1)NC(=O)[C@H](Cc1ccccc1)NC(=O)[C@@H](N)CO)C(=O)N[C@@H](CCCNC(=N)N)C(N)=O` [Ra-P5-NH2, SFFLR-amide] (H-SFFLR-NH2), the “Relative potency (REC) RLM” value in data set [3] is listed as 0.07. For the same compound, the “Agonist (contractile) activity” value in data set [3] (RLM) is “most potent of all of the peptides we examined”. In addition, in data set [2] (RA), the “Agonist (relaxation) activity” value is on record as “considerably less potent than the comparable human receptor sequences”. Moreover, the “Relative potency (REC) RA” value in data set [2] (setting [4]) is listed as 0.2.

With `CC(C)C[C@H](NC(=O)[C@H](CC(C)C)NC(=O)[C@H](Cc1ccccc1)NC(=O)[C@@H](N)CO)C(=O)N[C@@H](CCCN=C(N)N)C(=O)N[C@@H](CC(N)=O)C(=O)N1CCC[C@H]1C(N)=O` [P7-NH2, S42 FLLRNP48 -amide] (H-SFLLRNP-NH2), the “Relative potency (REC) RLM” value in data set [3] is given as 0.1.

For the compound `O=c1c(-c2ccc(O)cc2)coc2cc(O)cc(O)c12` [genistein, reference compound], the “Effect of inhibitor on contractile actions of P5--NH2 and Pr-P4” value (shortened to “Effect of inhibitor … of P5--NH2 and Pr-P4”) in data set [1] is recorded as “similarly effective”. The “Effect of inhibitor on contractile action of carbachol” value in data set [3] (RLM) is “unaffected”. In addition, the “Inhibition of the RLM response to P5-NH2” value in data set [3] (mean ±S.E.M. for n=6) is recorded as 77±3 % inhibition.

Take `CC(C)C[C@H](NC(=O)[C@H](Cc1ccccc1)NC(=O)[C@H](Cc1ccccc1)NC(=O)[C@@H](N)CO)C(=O)N[C@@H](CCCNC(=N)N)C(=O)O` [Ra-P5, SFFLR] (H-SFFLR-OH): in data set [3], the “Relative potency (REC) RLM” value worked out at 1.0. In addition, in data set [2] (setting [4]), the “Relative potency (REC) RA” value is recorded as 4.4.

In the case of `COc1cc2ncnc(Nc3cccc(Cl)c3)c2cc1OC` [tyrphostin, Tyrphostin, reference compound], in data set [1], the “Effect of inhibitor … of P5--NH2 and Pr-P4” value is “blocked”. Also, in data set [3], the “Sensitivity of the RLM response to P5-NH2 to the inhibitor” value is listed as “quite sensitive”.

Turning to `CC(C)C[C@H](NC(=O)[C@H](CC(C)C)NC(=O)[C@H](Cc1ccccc1)NC(=O)[C@@H](N)CO)C(=O)N[C@@H](CCCNC(=N)N)C(=O)N[C@@H](CC(N)=O)C(=O)N1CCC[C@H]1C(=O)O` [P7, S42 FLLRNP48] (H-SFLLRNP-OH), the “Relative potency (REC) GLM” value in data set [1] (setting [5]) was determined as 0.4. In addition, the “Relative potency (REC) RA” value in data set [2] (setting [4]) is 1.1.

As for `CC(C)C[C@H](NC(=O)[C@H](CC(C)C)NC(=O)[C@H](Cc1ccccc1)NC(=O)[C@H](C)N)C(=O)N[C@@H](CCCNC(=N)N)C(=O)O` [AP5, A42 FLLR46] (H-AFLLR-OH), the “Relative potency (REC) GLM” value in data set [1] is given as 1.8. Moreover, the “Relative potency (REC) RA” value in data set [2] worked out at 1.7.

In the case of `CCC(=O)N[C@@H](Cc1ccccc1)C(=O)N[C@@H](CC(C)C)C(=O)N[C@@H](CC(C)C)C(=O)N[C@@H](CCCNC(=N)N)C(N)=O` [Pr-P4-NH2, N-propionyl-F43 -LLR46 -amide] (Propionyl-FLLR-NH2), in data set [2] (setting [4]), the “Relative potency (REC) RA” value is “A”.

For `CC(C)C[C@H](NC(=O)[C@H](CC(C)C)NC(=O)[C@H](Cc1ccccc1)NC(=O)[C@@H](N)CO)C(=O)N[C@@H](CCCN=C(N)N)C(=O)N[C@@H](CC(N)=O)C(=O)N1CCC[C@H]1C(=O)O` [P7, S42 FLLRNP48] (H-SFLLRNP-OH), the “Relative potency (REC) RLM” value in data set [3] worked out at 0.3.

On to `CC(C)C[C@H](NC(=O)[C@H](Cc1ccccc1)NC(=O)[C@H](Cc1ccccc1)NC(=O)[C@@H](N)CO)C(=O)N[C@@H](CCCNC(=N)N)C(=O)N[C@@H](CC(N)=O)C(=O)N1CCC[C@H]1C(=O)O` [Ra-P7, SFFLRNP] (H-SFFLRNP-OH), for which the “Relative potency (REC) RLM” value in data set [3] is reported as 0.3. Moreover, the “Relative potency (REC) RA” value in data set [2] (setting [4]) was found to be 0.6.

Regarding `CCC(=O)N[C@@H](Cc1ccccc1)C(=O)N[C@@H](CC(C)C)C(=O)N[C@@H](CC(C)C)C(=O)N[C@@H](CCCNC(=N)N)C(=O)O` [Pr-P4, N-propionyl-F43 LLR46] (Propionyl-FLLR-OH), in data set [1], the “Relative potency (REC) GLM” value is on record as 1. The “Relative potency (REC) RA” value in data set [2] stood at 0.1.

`CC(C)C[C@H](NC(=O)[C@H](CC(C)C)NC(=O)[C@H](Cc1ccccc1)NC(=O)[C@@H](N)CO)C(=O)N[C@@H](CCCNC(=N)N)C(=O)N[C@@H](CC(N)=O)C(=O)N1CCC[C@H]1C(N)=O` [P7-NH2, S42 FLLRNP48 -amide] (H-SFLLRNP-NH2): the “Relative potency (REC) GLM” value in data set [1] (setting [5]) is 0.04. In addition, the “Agonist (relaxation) activity” value in data set [2] (RA) is on record as “active”. Moreover, the “Relative potency (REC) RA” value in data set [2] (setting [4]) is on record as 0.08.

For `COc1ccc2c(c1)c(CC(=O)O)c(C)n2C(=O)c1ccc(Cl)cc1` [indomethacin, reference compound], the “Effect of inhibitor … of P5--NH2 and Pr-P4” value in data set [1] is “blocked”. Also, in data set [3], the “Inhibition of the RLM response to P5-NH2” value came to 40±6 % inhibition. Also, in data set [3] (RLM), the “Effect of inhibitor on contractile action of carbachol” value was “unaffected”. The “Effect of inhibitor on RA relaxation responses to TRPs” value in data set [2] (RA, P5-NH2 and Pr-P4) is given as “not inhibited”.
